Target: T1, BH3 deletion human Bak mutant protein (ΔBH3) (Homo sapiens, UniProt Q16611, DEL74-90)
T1 construct: His6; made in house; host or cells: Escherichia coli BL21 DE3
Test: Isothermal titration calorimetry (ITC), BH3 deletion mutant
Assay type: binding
Protocol: The binding affinity of BKA-073 with Bak protein was examined by isothermal titration calorimetry (ITC) assay as described, [28]. ITC assay was carried out in the auto-iTC200 instrument (MicroCal, GE) at 25 °C. Purified recombinant human or mouse Bak protein was loaded into a 96 Deepwell PP plate. BKA-073 compound was then titrated stepwise into the protein for a total of 16 injections. Reference power and initial delay were set as 5 µCal/sec and 60s, respectively. A string speed of 750 rpm was used for the ITC measurements. The binding constant (Kd) value was determined by fitting the titration curve to a one-site binding mode, using the Origin software provided by the manufacturer.
To confirm the binding of BKA-073 with Bak, we first conducted a competitive fluorescence polarization (FP) assay using purified human Bak protein, fluorescent Bak BH3 domain peptide, and BKA-073 as described, [37]-[40]. […] There are multiple amino acid differences in the BH3 domains between Bak and other Bcl2 family members, which helps to explain why BKA-073 only binds to Bak but not to other Bcl2 family members (i.e. Bax, Bcl2, Bcl-XL, Bcl-w and Mcl-1). In addition to the FP assay, isothermal titration calorimetry (ITC) was also employed to measure Bak/BKA-073 binding. […] In addition to human Bak/BKA-073 binding, we measured mouse Bak/BKA-073 binding using ITC. […]

T1 sequence (Q16611 with tags, fused parts or gaps DEL74-90 limits assumed): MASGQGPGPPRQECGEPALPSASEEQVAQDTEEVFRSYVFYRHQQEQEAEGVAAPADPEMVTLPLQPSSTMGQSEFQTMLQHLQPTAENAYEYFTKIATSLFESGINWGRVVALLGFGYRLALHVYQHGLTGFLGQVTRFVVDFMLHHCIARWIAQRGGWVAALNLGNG

## COc1ccc2nc3ccccc3c(NCCNCC(C)O)c2c1 (stereo not shown) [BKA-073]
  binding to ΔBH3 Bak mutant: failed to bind

Source: publication PMC8344021, “Discovery of Small Molecule Bak Activator for Lung Cancer Therapy” (Theranostics, 2021)
